Experimental data taken from paper PMC11229689, “In Vitro Selection of Macrocyclic L-α/D-α/β/γ-Hybrid Peptides Targeting IFN-γ/IFNGR1 Protein–Protein Interaction” (Journal of the American Chemical Society, 2024).
Where two headings read alike, the source gives them in different places. *1 amine or outer side, *2 acyl side, *3 side chain or, on linkers, in order; H or OH if unused. Where a SMILES comes first, the peptide text is derived from it. Bridges are numbered along the chain shown (N, C = ends). [ ]: non-standard residue; d: D form. Acbc(trans-1,3) = O=C([C@H]1C[C@H](N[*:1])C1)[*:2]; Acbc(cis-1,3) = O=C([C@H]1C[C@@H](N[*:1])C1)[*:2]; X1 = O=C([C@@H]1CCC[C@@H]1N[*:1])[*:2]

Assays:
[1] = Serum stability assay (LC/MS); assay type: in vitro ADME, human; conditions: human serum, 37 °C, LC/MS, relative to internal standard peptide, n = 3, read-out: half-life in human serum (t1/2) (converted)
Procedure: (§1) Binding affinities of IA1 and IA2 against IFNGR1 were evaluated by surface plasmon resonance (SPR) (Table 1 and SI Figure S6A). […] To investigate the contribution of the N-terminal [yVPβ^1RR] motif and β^1 residue in IA1, three scrambled peptides IA1s1–3 and a variant IA1β^14A were synthesized and evaluated. […] We next evaluated inhibitory activities of IA1 and IA2 against the ligand–receptor PPI between IFN-γ and IFNGR1 using AlphaLISA (Table 1 and SI Figure S7).[37] […] We also determined the serum half-lives of IA1 and IA2, considering peptidase resistance as an important factor for therapeutic peptides.[24] A sample peptide and a peptidase-resistant internal standard peptide were coincubated in human serum at 37 °C, and the relative amount of the remaining sample peptide was estimated by LC/MS. […]
10–200 μM synthetic peptide and 5 μM serum-resistant internal standard peptide consisting only of D-amino acids (NH2-PEG5-wstndwstnd-PEG5-CONH2)3 were mixed and incubated in human serum (Cosmo Bio, 12181201) at 37 °C for up to 120 h. At each time point, 4 μL of the mixture was removed and quenched by adding 12 μl methanol. Following centrifugation (15,000 g, 4 °C, 5 min), 10 μL of the supernatant was mixed with 40 μl of 1% (v/v) TFA. Following centrifugation (15,000 g, 4 °C, 5 min), the supernatant was collected for LC/MS analysis, which used a reverse-phase column (ACQUITY UPLC BEH C18, 1.7 μm, 2.1 × 150 mm; Waters) and a Xevo G2-XS QTof system (Waters) with a linear gradient from 1% B to 61% B. Buffer A was water with 0.1% (v/v) formic acid; buffer B was acetonitrile with 0.1% (v/v) formic acid. The percentages of remaining peptides were determined by the peak area integration of the chromatograms. For tandem mass spectrometry, MS/MS spectra were acquired with a 0.2 s scan time, with 10−30 eV collision energy. The obtained LC/MS data was analyzed using MassLynx 4.1 (Waters). […]

[2] = molecular target: T1, Fc-tagged human IFNGR1 (Homo sapiens, UniProt P15260); experiment: Binding kinetics and affinity to IFNGR1 by surface plasmon resonance (SPR); conditions: for kon: read-out: ka
T1 construct: purchased ACROBiosystems
T1 sequence (P15260 18-489): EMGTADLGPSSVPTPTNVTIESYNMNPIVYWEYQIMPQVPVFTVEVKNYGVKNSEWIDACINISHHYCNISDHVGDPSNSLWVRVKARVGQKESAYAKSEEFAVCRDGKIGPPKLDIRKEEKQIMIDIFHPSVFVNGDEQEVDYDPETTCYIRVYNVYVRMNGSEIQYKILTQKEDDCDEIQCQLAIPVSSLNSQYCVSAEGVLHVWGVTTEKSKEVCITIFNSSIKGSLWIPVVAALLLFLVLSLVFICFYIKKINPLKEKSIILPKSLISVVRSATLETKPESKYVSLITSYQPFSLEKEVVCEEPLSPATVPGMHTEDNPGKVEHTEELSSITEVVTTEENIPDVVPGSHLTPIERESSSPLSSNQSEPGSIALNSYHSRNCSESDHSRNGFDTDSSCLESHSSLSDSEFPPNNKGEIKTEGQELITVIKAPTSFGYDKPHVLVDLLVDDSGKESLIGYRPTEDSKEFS
Procedure: as §1
Evaluation of binding affinity of peptides by surface plasmon resonance The binding affinities of selected peptides and IFNGR1 were analyzed by surface plasmon resonance (SPR) using a Biacore T200 instrument (Cytiva) at 25 °C with the following running buffer: 10 mM Tris-HCl (pH 8.0), 150 mM NaCl, 0.05% (v/v) Tween 20 , and 0.1% (v/v) DMSO. Fc-tagged IFNGR1 was immobilized on a series S sensor chip protein G (Cytiva) to a surface density of 1,200–1,600 response units following the immobilization protocols provided by Cytiva. The kinetic constants were determined by a single-cycle kinetics method by the injection of five different concentrations (twofold dilution series) of each peptide at a flow rate of 30 μL/min. The resulting sensorgrams were fitted to the standard 1:1 interaction model and analyzed using Biacore evaluation software. […]

[3] = SPR, 25 °C, 1:1 binding model, read-out: KD
[4] = SPR, 25 °C, single-cycle kinetics, 1:1 binding model

Compound | half-life ([1]; human) | Kd [2, 3] | kon [2, 4] | half-life [1] | Kd [2] | kon [2]
CC(C)[C@@H]1NC(=O)[C@H](Cc2ccc(O)cc2)NC(=O)CSC[C@@H](C(N)=O)NC(=O)[C@H](CC(N)=O)NC(=O)[C@H](CO)NC(=O)[C@H](CCCNC(=N)N)NC(=O)[C@H]2C[C@H](C2)NC(=O)[C@H](Cc2c[nH]cn2)NC(=O)[C@H](CC(N)=O)NC(=O)[C@H]([C@@H](C)O)NC(=O)[C@H](Cc2c[nH]cn2)NC(=O)[C@H](CCCNC(=N)N)NC(=O)[C@H](CCCNC(=N)N)NC(=O)[C@@H]2CCC[C@@H]2NC(=O)[C@@H]2CCCN2C1=O [IA1YC, ^AcYVPβ^1RRHTNHγ^1RSNC-NH2] ({CH2CO}-YVP[X1]RRHTNH[Acbc(cis-1,3)]RSNC-NH2; thioether N-15) | 156 ± 6 min | 1400 ± 200 nM | 3600 ± 100 M⁻¹ s⁻¹ |  |  | 
CC(C)[C@@H]1NC(=O)[C@@H]2CCC[C@@H]2NC(=O)[C@H](CCCNC(=N)N)NC(=O)[C@H](Cc2c[nH]cn2)NC(=O)[C@@H]2CCCN2C(=O)[C@H](CCCNC(=N)N)NC(=O)[C@H]2C[C@H](C2)NC(=O)[C@H]([C@@H](C)O)NC(=O)[C@H](CCCNC(=N)N)NC(=O)[C@H](CC(N)=O)NC(=O)[C@H](CO)NC(=O)[C@@H](Cc2ccc(O)cc2)NC(=O)CSC[C@H](C(N)=O)NC(=O)[C@H](Cc2c[nH]cn2)NC(=O)[C@H](CC(N)=O)NC1=O [IA1s1, ^AcySNRTγ^1RPHRβ^1VNHc-NH2] ({CH2CO}-[dY]SNRT[Acbc(cis-1,3)]RPHR[X1]VNH[dC]-NH2; thioether N-15) |  | > 10000 nM |  |  |  | 
CC(C)[C@@H]1NC(=O)[C@@H](Cc2ccc(O)cc2)NC(=O)CSC[C@H](C(N)=O)NC(=O)[C@H]([C@@H](C)O)NC(=O)[C@H](CC(N)=O)NC(=O)[C@H](Cc2c[nH]cn2)NC(=O)[C@H](CC(N)=O)NC(=O)[C@H](CCCNC(=N)N)NC(=O)[C@H](Cc2c[nH]cn2)NC(=O)[C@H]2C[C@H](C2)NC(=O)[C@H](CO)NC(=O)[C@H](CCCNC(=N)N)NC(=O)[C@H](CCCNC(=N)N)NC(=O)[C@@H]2CCC[C@@H]2NC(=O)[C@@H]2CCCN2C1=O [IA1s2, ^AcyVPβ^1RRSγ^1HRNHNTc-NH2] ({CH2CO}-[dY]VP[X1]RRS[Acbc(cis-1,3)]HRNHNT[dC]-NH2; thioether N-15) |  | 2200 ± 200 nM | 2200 ± 200 M⁻¹ s⁻¹ |  |  | 
CC(C)[C@@H]1NC(=O)[C@H](CCCNC(=N)N)NC(=O)[C@@H]2CCC[C@@H]2NC(=O)[C@@H](Cc2ccc(O)cc2)NC(=O)CSC[C@H](C(N)=O)NC(=O)[C@H](CC(N)=O)NC(=O)[C@H](CO)NC(=O)[C@H](CCCNC(=N)N)NC(=O)[C@H]2C[C@H](C2)NC(=O)[C@H](Cc2c[nH]cn2)NC(=O)[C@H](CC(N)=O)NC(=O)[C@H]([C@@H](C)O)NC(=O)[C@H](Cc2c[nH]cn2)NC(=O)[C@H](CCCNC(=N)N)NC(=O)[C@@H]2CCCN2C1=O [IA1s3, ^Acyβ^1RVPRHTNHγ^1RSNc-NH2] ({CH2CO}-[dY][X1]RVPRHTNH[Acbc(cis-1,3)]RSN[dC]-NH2; thioether N-15) |  | > 10000 nM |  |  |  | 
CC(C)[C@@H]1NC(=O)[C@@H](Cc2ccc(O)cc2)NC(=O)CSC[C@H](C(N)=O)NC(=O)[C@H](CC(N)=O)NC(=O)[C@H](CO)NC(=O)[C@H](CCCNC(=N)N)NC(=O)[C@H]2C[C@H](C2)NC(=O)[C@H](Cc2c[nH]cn2)NC(=O)[C@H](CC(N)=O)NC(=O)[C@H]([C@@H](C)O)NC(=O)[C@H](Cc2c[nH]cn2)NC(=O)[C@H](CCCNC(=N)N)NC(=O)[C@H](CCCNC(=N)N)NC(=O)[C@H](C)NC(=O)[C@@H]2CCCN2C1=O [IA1β^14A, ^AcyVPA RRHTNHγ^1RSNc-NH2] ({CH2CO}-[dY]VPARRHTNH[Acbc(cis-1,3)]RSN[dC]-NH2; thioether N-15) | 42.6 ± 6 min | > 10000 nM |  |  |  | 
CC(C)[C@@H]1NC(=O)[C@H](Cc2ccc(O)cc2)NC(=O)CSC[C@@H](C(N)=O)NC(=O)[C@H](CCCNC(=N)N)NC(=O)[C@H](CO)NC(=O)[C@H](CCCNC(=N)N)NC(=O)[C@H](Cc2c[nH]cn2)NC(=O)CNC(=O)[C@H]2C[C@H](C2)NC(=O)[C@H](Cc2c[nH]cn2)NC(=O)[C@H](CC(N)=O)NC(=O)[C@H](CCCNC(=N)N)NC(=O)[C@H](CCCNC(=N)N)NC(=O)[C@@H]2CCC[C@@H]2NC(=O)[C@H](C)NC1=O [IB1YC, ^AcYVAβ^1RRNHγ^1GHRSRC-NH2] ({CH2CO}-YVA[X1]RRNH[Acbc(cis-1,3)]GHRSRC-NH2; thioether N-15) |  | 1700 ± 200 nM | 2200 ± 300 M⁻¹ s⁻¹ |  |  | 
CC(C)[C@@H]1NC(=O)[C@H](Cc2ccc(O)cc2)NC(=O)CSC[C@@H](C(N)=O)NC(=O)[C@H](CC(N)=O)NC(=O)[C@H]2C[C@@H](C2)NC(=O)[C@H](CCCNC(=N)N)NC(=O)[C@@H]2CCCN2C(=O)[C@H]([C@@H](C)O)NC(=O)[C@H](CCCNC(=N)N)NC(=O)[C@H](CCCNC(=N)N)NC(=O)[C@H](CO)NC(=O)[C@H](CCCNC(=N)N)NC(=O)[C@H](CCCNC(=N)N)NC(=O)[C@@H]2CCC[C@@H]2NC(=O)[C@@H]2CCCN2C1=O [IB4YC, ^AcYVPβ^1RRSRRTPRγ^2NC-NH2] ({CH2CO}-YVP[X1]RRSRRTPR[Acbc(trans-1,3)]NC-NH2; thioether N-15) | 55.2 ± 6.6 min | 45 ± 5 nM | 58000 ± 11000 M⁻¹ s⁻¹ |  |  | 
CC(C)[C@@H]1NC(=O)[C@@H](Cc2ccc(O)cc2)NC(=O)CSC[C@H](C(N)=O)NC(=O)[C@H](CC(N)=O)NC(=O)[C@H]2C[C@@H](C2)NC(=O)[C@H](CCCNC(=N)N)NC(=O)[C@@H]2CCCN2C(=O)[C@H]([C@@H](C)O)NC(=O)[C@H](CCCNC(=N)N)NC(=O)[C@H](CCCNC(=N)N)NC(=O)[C@H](CO)NC(=O)[C@H](CCCNC(=N)N)NC(=O)[C@H](CCCNC(=N)N)NC(=O)[C@H](C)NC(=O)[C@@H]2CCCN2C1=O [IB4β^14A, ^AcyVPA RRSRRTPRγ^2Nc-NH2] ({CH2CO}-[dY]VPARRSRRTPR[Acbc(trans-1,3)]N[dC]-NH2; thioether N-15) |  |  |  | 30 ± 1.8 min | 420 ± 120 nM | 8900 ± 2100 M⁻¹ s⁻¹
CC(C)[C@@H]1NC(=O)[C@H](Cc2ccc(O)cc2)NC(=O)CSC[C@@H](C(N)=O)NC(=O)[C@H](CC(N)=O)NC(=O)[C@H](Cc2c[nH]cn2)NC(=O)[C@H](CCCNC(=N)N)NC(=O)[C@H]2C[C@@H](C2)NC(=O)[C@H]([C@@H](C)O)NC(=O)[C@H](Cc2c[nH]cn2)NC(=O)[C@@H]2CCCN2C(=O)[C@H](CO)NC(=O)[C@H](CCCNC(=N)N)NC(=O)[C@H](CCCNC(=N)N)NC(=O)[C@@H]2CCC[C@@H]2NC(=O)[C@@H]2CCCN2C1=O [IB5YC, ^AcYVPβ^1RRSPHTγ^2RHNC-NH2] ({CH2CO}-YVP[X1]RRSPHT[Acbc(trans-1,3)]RHNC-NH2; thioether N-15) | 840 ± 120 min | 1900 ± 100 nM | 16000 ± 1000 M⁻¹ s⁻¹ |  |  | 
CC(C)[C@@H]1NC(=O)[C@@H](Cc2ccc(O)cc2)NC(=O)CSC[C@H](C(N)=O)NC(=O)[C@H](CC(N)=O)NC(=O)[C@H](Cc2c[nH]cn2)NC(=O)[C@H](CCCNC(=N)N)NC(=O)[C@H]2C[C@@H](C2)NC(=O)[C@H]([C@@H](C)O)NC(=O)[C@H](Cc2c[nH]cn2)NC(=O)[C@@H]2CCCN2C(=O)[C@H](CO)NC(=O)[C@H](CCCNC(=N)N)NC(=O)[C@H](CCCNC(=N)N)NC(=O)[C@H](C)NC(=O)[C@@H]2CCCN2C1=O [IB5β^14A, ^AcyVPA RRSPHTγ^2RHNc-NH2] ({CH2CO}-[dY]VPARRSPHT[Acbc(trans-1,3)]RHN[dC]-NH2; thioether N-15) | 24.6 ± 1.8 min | > 10000 nM |  |  |  | 
